Test results from article PMC5936891, “A focused library synthesis and cytotoxicity of quinones derived from the natural product bolinaquinone” (Royal Society Open Science, 2018).

Legend:
HT29 (colon carcinoma) = test: MTT in vitro growth inhibition assay, HT29; type: cell-based; settings: Homo sapiens, HT-29, 25 µM of drug, 72 h, read-out: Percentage of Cell Growth Inhibition HT29
Excerpt: (§1) With the desired bolinaquinone analogues 12–43 in hand, we examined their cytotoxicity against a panel of 11 tumour cell lines: HT29 (colon carcinoma), U87 and SJ-G2 (glioblastoma), MCF-7 (breast carcinoma), A2780 (ovarian carcinoma), H460 (lung carcinoma), A431 (skin carcinoma), Du145 (prostate carcinoma), BE2-C (neuroblastoma), MIA (pancreatic carcinoma), SMA (spontaneous murine astrocytoma) and a normal breast cell line (MCF10A). The inclusion of the MCF-10A cell line allowed a determination of a crude measure of relative toxicity while noting that the ultimate arbiter of toxicity requires in vivo evaluation. All analogues were initially screened at a 25 µM drug concentration.
(§2) Stock solutions were prepared as follows and stored at −20°C: drugs were stored as 40 mM solutions in DMSO. All cell lines were cultured in a humidified atmosphere 5% CO2 at 37°C. The cancer cell lines were maintained in Dulbecco's modified Eagle's medium (DMEM) (Trace Biosciences, Australia) supplemented with 10% fetal bovine serum, 10 mM sodium bicarbonate, penicillin (100 IU ml^−1), streptomycin (100 µg ml^−1) and glutamine (4 mM). The non-cancer MCF10A cell line was cultured in DMEM:F12 (1 : 1) cell culture media, 5% heat-inactivated horse serum, supplemented with penicillin (50 IU ml^−1), streptomycin (50 µg ml^−1), 20 mM Hepes, L-glutamine (2 mM), epidermal growth factor (20 ng ml^−1), hydrocortisone (500 ng ml^−1), cholera toxin (100 ng ml^−1) and insulin (10 ug ml^−1).
(§3) Cells in logarithmic growth were transferred to 96-well plates. Cytotoxicity was determined by plating cells in duplicate in 100 µl medium at a density of 2500–4000 cells per well. On day 0 (24 h after plating), when the cells were in logarithmic growth, 100 μl of medium with or without the test agent was added to each well. After 72 h, drug exposure growth inhibitory effects were evaluated using the MTT (3-[4,5-dimethylthiazol-2-yl]-2,5-diphenyl-tetrazolium bromide) assay and the absorbance read at 540 nm. Percentage growth inhibition was determined at a fixed drug concentration of 25 µM. A value of 100% is indicative of complete cell growth inhibition. Those analogues showing appreciable percentage growth inhibition underwent further dose–response analysis allowing for the calculation of a GI50 value. This value is the drug concentration at which cell growth is 50% inhibited based on the difference between the optical density values on day 0 and those at the end of drug exposure.

U87 (glioblastoma) = test: MTT in vitro growth inhibition assay, U87; type: cell-based; settings: 25 µM of drug, 72 h, read-out: Percentage of Cell Growth Inhibition U87
Excerpt: as §1, §2, §3

MCF-7 (breast carcinoma) = test: MTT in vitro growth inhibition assay, MCF-7; type: cell-based; settings: Homo sapiens, MCF7, 25 µM of drug, 72 h, read-out: Percentage of Cell Growth Inhibition MCF-7
Excerpt: as §1, §2, §3

[1] = test system: A2780 (ovarian carcinoma); test: MTT in vitro growth inhibition assay, A2780; type: cell-based; settings: Homo sapiens, 25 µM of drug, 72 h, read-out: Percentage of Cell Growth Inhibition A2780
Excerpt: as §1, §2, §3

H460 (lung carcinoma) = test: MTT in vitro growth inhibition assay, H460; type: cell-based; settings: Homo sapiens, NCI-H460, 25 µM of drug, 72 h, read-out: Percentage of Cell Growth Inhibition H460
Excerpt: as §1, §2, §3

A431 (skin carcinoma) = test: MTT in vitro growth inhibition assay, A431; type: cell-based; settings: Homo sapiens, A-431, 25 µM of drug, 72 h, read-out: Percentage of Cell Growth Inhibition A431
Excerpt: as §1, §2, §3

[2] = test system: Du145 (prostate carcinoma); test: MTT in vitro growth inhibition assay, Du145; type: cell-based; settings: Homo sapiens, DU-145, 25 µM of drug, 72 h, read-out: Percentage of Cell Growth Inhibition Du145
Excerpt: as §1, §2, §3

BE2-C (neuroblastoma) = test: MTT in vitro growth inhibition assay, BE2-C; type: cell-based; settings: Homo sapiens, BE(2)-C, 25 µM of drug, 72 h, read-out: Percentage of Cell Growth Inhibition BE2-C
Excerpt: as §1, §2, §3

SJ-G2 (glioblastoma) = test: MTT in vitro growth inhibition assay, SJ-G2; type: cell-based; settings: 25 µM of drug, 72 h, read-out: Percentage of Cell Growth Inhibition SJ-G2
Excerpt: as §1, §2, §3

[3] = test system: MIA (pancreatic carcinoma); test: MTT in vitro growth inhibition assay, MIA; type: cell-based; settings: 25 µM of drug, 72 h, read-out: Percentage of Cell Growth Inhibition MIA
Excerpt: as §1, §2, §3

[4] = test system: SMA (spontaneous murine astrocytoma); test: MTT in vitro growth inhibition assay, SMA; type: cell-based; settings: Mus musculus, 25 µM of drug, 72 h, read-out: Percentage of Cell Growth Inhibition SMA
Excerpt: as §1, §2, §3

[5] = test system: MCF10A (normal breast cell line); test: MTT in vitro growth inhibition assay, MCF10A; type: cell-based; settings: Homo sapiens, MCF-10A, 25 µM of drug, 72 h, read-out: Percentage of Cell Growth Inhibition MCF10A
Excerpt: as §1, §2, §3

[6] = test system: panel of 11 cancer cell lines and one normal cell line; test: Cytotoxicity across the whole cell line panel (MTT); type: cell-based; settings: 25 µM single dose
Excerpt: as §1, §2, §3

Row | SMILES | inhibition at 25 µM (HT29 (colon carcinoma)) [%] | inhibition at 25 µM (U87 (glioblastoma)) [%] | inhibition at 25 µM (MCF-7 (breast carcinoma)) [%] | inhibition at 25 µM [1] [%] | inhibition at 25 µM (H460 (lung carcinoma)) [%] | inhibition at 25 µM (A431 (skin carcinoma)) [%] | inhibition at 25 µM [2] [%] | inhibition at 25 µM (BE2-C (neuroblastoma)) [%] | inhibition at 25 µM (SJ-G2 (glioblastoma)) [%] | inhibition at 25 µM [3] [%] | inhibition at 25 µM [4] [%] | inhibition at 25 µM [5] [%] | activity at the initial screening concentration (to proceed to GI50 determination) [6] | melting point [°C]
1 | COC1=CC(=O)C(OC)=C(c2cccc(C)c2)C1=O [compound 14, 2,5-Dimethoxy-3-m-tolylcyclohexa-2,5-diene-1,4-dione] | 12 ± 3 | 21 ± 7 | 22 ± 11 | 59 ± 13 | 19 ± 2 | 26 ± 5 | 28 ± 8 | 80 ± 10 | 38 ± 18 | 24 ± 7 | 36 ± 7 | 16 ± 5 | not sufficiently active | 74 to 77
2 | CCCCc1ccc(C2=C(OC)C(=O)C=C(OC)C2=O)cc1 [compound 15, 3-(4-Butylphenyl)-2,5-dimethoxycyclohexa-2,5-diene-1,4-dione] | < 10 | 10 ± 7 | 19 ± 7 | 39 ± 14 | < 10 | < 10 | < 10 | 41 ± 18 | 12 ± 6 | < 10 | 25 ± 10 | < 10 | not sufficiently active | –
3 | COC1=CC(=O)C(OC)=C(c2ccccc2OC)C1=O [compound 18, 3-(2-Methoxyphenyl)-2,5-dimethoxycyclohexa-2,5-diene-1,4-diene] | 13 ± 6 | 15 ± 2 | 22 ± 9 | 33 ± 6 | 22 ± 2 | 28 ± 4 | 14 ± 8 | 75 ± 9 | 17 ± 8 | 19 ± 5 | 34 ± 8 | 15 ± 5 | not sufficiently active | 162 to 164
4 | COC1=CC(=O)C(OC)=C(c2cccc(OC)c2)C1=O [compound 19, 3-(3-Methoxyphenyl)-2,5-dimethoxycyclohexa-2,5-diene-1,4-diene] | 13 ± 4 | 20 ± 5 | 36 ± 14 | 60 ± 11 | 19 ± 1 | 22 ± 2 | 24 ± 6 | 70 ± 5 | 26 ± 12 | 20 ± 6 | 40 ± 8 | 15 ± 3 | not sufficiently active | 72 to 75
